From ChEMBL document CHEMBL5143564, “PES derivative PESA is a potent tool to globally profile cellular targets of PES” (Bioorg Med Chem Lett, 2022)
Activity calls are given as the source filed them. The rule behind the calls is not given here.

Tests used:
[1] = molecular target: T1, Peroxiredoxin-2 (Homo sapiens) (UniProt P32119); test: Binding affinity to PRDX2 in human DOHH-2 cells measured after 6 hrs by pull-down assay; assay type: cell-based; settings: DDE = dose-dependent effect
T1 sequence (whole entry): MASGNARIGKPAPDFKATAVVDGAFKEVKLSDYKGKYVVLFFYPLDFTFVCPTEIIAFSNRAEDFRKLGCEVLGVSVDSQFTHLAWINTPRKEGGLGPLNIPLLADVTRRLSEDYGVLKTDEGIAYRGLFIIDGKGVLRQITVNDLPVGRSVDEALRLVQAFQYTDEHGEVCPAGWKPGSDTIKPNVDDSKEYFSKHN

[2] = tested on: HepG2; test: Cytotoxicity against human HepG2 cells measured after 72 hrs; assay type: functional, cell-based
[3] = molecular target: Glutathione S-transferase P (Homo sapiens) (UniProt P09211); test: Binding affinity to GSTP1 in human MDA-MB-453 cells measured after 6 hrs by pull-down assay; assay type: cell-based; settings: dose <= 20.0 µM, DDE = dose-dependent effect
[4] = molecular target: T2, D-3-phosphoglycerate dehydrogenase (Homo sapiens) (UniProt O43175); test: Binding affinity to D-3-phosphoglycerate dehydrogenase in human DOHH-2 cells by MS analysis; assay type: cell-based
T2 sequence (whole entry): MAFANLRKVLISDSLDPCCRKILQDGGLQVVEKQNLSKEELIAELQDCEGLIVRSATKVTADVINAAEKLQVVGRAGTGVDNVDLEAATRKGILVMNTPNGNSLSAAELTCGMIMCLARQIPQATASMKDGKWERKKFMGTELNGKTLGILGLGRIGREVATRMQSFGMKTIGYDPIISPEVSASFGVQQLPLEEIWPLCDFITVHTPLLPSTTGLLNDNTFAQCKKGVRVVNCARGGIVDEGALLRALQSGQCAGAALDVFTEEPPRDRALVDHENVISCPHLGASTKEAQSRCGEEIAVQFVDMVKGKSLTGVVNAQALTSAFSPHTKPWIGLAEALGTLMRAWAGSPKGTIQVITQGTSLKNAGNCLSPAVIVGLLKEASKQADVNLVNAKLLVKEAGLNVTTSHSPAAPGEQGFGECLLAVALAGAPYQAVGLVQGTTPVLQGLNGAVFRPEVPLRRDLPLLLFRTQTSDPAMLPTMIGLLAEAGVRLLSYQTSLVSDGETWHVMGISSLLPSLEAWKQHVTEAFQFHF

[5] = molecular target: T3, Protein disulfide-isomerase A6 (Homo sapiens) (UniProt Q15084); test: Binding affinity to PDIA6 in human MDA-MB-453 cells measured after 6 hrs by pull-down assay; assay type: cell-based; settings: dose <= 20.0 µM, DDE = dose-dependent effect
T3 sequence (whole entry): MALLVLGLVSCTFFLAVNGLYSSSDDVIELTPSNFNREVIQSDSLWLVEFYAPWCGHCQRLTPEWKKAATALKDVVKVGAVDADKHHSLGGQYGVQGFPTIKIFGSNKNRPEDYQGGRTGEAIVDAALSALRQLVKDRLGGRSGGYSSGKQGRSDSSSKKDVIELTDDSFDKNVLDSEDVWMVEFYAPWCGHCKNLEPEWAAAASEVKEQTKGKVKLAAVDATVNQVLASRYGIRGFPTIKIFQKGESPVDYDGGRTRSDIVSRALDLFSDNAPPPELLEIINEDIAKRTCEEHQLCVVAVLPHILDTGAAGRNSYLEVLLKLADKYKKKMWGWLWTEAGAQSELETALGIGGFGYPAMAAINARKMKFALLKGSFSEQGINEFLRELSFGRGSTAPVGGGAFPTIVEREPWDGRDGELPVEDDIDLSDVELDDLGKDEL

[6] = molecular target: T4, Peroxiredoxin-5, mitochondrial (Homo sapiens) (UniProt P30044); test: Binding affinity to PRDX5 in human MDA-MB-453 cells measured after 6 hrs by pull-down assay; assay type: cell-based; settings: dose <= 20.0 µM, DDE = dose-dependent effect
T4 sequence (whole entry): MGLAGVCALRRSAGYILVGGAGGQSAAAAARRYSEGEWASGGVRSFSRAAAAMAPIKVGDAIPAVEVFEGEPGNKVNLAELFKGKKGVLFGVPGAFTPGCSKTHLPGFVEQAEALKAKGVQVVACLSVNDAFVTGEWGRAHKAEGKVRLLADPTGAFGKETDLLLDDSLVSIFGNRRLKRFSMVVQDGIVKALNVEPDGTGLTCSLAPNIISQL

[7] = molecular target: Tubulin beta (Homo sapiens) (UniProt P68371+Q9H4B7+Q13509+P04350+Q3ZCM7+P07437+Q13885+Q9BVA1+Q9BUF5+A6NNZ2); test: Binding affinity to beta-tubulin in human DOHH-2 cells by MS analysis; assay type: cell-based
[8] = GSH reactivity in pH 7.4 buffer assessed as GSH adduct formation by measuring half life at 50 uM by near-UV absorbance spectra analysis; assay type: physicochemical; settings: pH 7.4, 50 µM
[9] = tested on: DOHH-2; test: Induction of autophagy in human DOHH-2 cells assessed as reduction in p62 expression at 0.5 to 8 uM measured after 24 hrs by Western blot analysis; assay type: functional, cell-based; settings: dose 0.5-8 µM
[10] = molecular target: T5, Peroxiredoxin-1 (Homo sapiens) (UniProt Q06830); test: Binding affinity to PRDX1 in human MDA-MB-453 cells measured after 6 hrs by pull-down assay; assay type: cell-based; settings: dose <= 20.0 µM, DDE = dose-dependent effect
T5 sequence (whole entry): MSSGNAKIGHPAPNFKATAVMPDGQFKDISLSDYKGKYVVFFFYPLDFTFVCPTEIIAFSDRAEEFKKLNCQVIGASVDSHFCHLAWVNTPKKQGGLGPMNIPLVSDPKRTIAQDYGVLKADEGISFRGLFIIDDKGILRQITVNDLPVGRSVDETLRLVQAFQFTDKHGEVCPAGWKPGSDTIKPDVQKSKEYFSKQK

[11] = species on record: Homo sapiens; test: Binding affinity to human HSP70 SBDalpha domain (537 to 610 residues) C574S mutant assessed as Cys603 adduct formation by size exclusion chromatography
[12] = molecular target: T3, Protein disulfide-isomerase A6 (Homo sapiens); test: Binding affinity to PDIA6 in human DOHH-2 cells measured after 6 hrs by pull-down assay; assay type: cell-based; settings: DDE = dose-dependent effect
[13] = molecular target: Glutathione S-transferase P (Homo sapiens) (UniProt P09211); test: Binding affinity to GSTP1 in human DOHH-2 cells measured after 6 hrs by pull-down assay; assay type: cell-based; settings: DDE = dose-dependent effect
[14] = tested on: Jurkat; test: Cytotoxicity against human Jurkat T cells measured after 72 hrs; assay type: functional, cell-based
[15] = molecular target: T1, Peroxiredoxin-2 (Homo sapiens); test: Binding affinity to PRDX2 in human DOHH-2 cells by MS analysis; assay type: cell-based
[16] = tested on: DOHH-2; test: Up regulation of HSP70 expression in human DOHH-2 cells at 0.5 to 8 uM measured after 24 hrs by Western blot analysis; assay type: functional, cell-based; settings: dose 0.5-8 µM
[17] = molecular target: Elongation factor 2 (Homo sapiens) (UniProt P13639); test: Binding affinity to elongation factor 2 in human DOHH-2 cells measured after 6 hrs by pull-down assay; assay type: cell-based; settings: DDE = dose-dependent effect
[18] = molecular target: T6, Thioredoxin-dependent peroxide reductase, mitochondrial (Homo sapiens) (UniProt P30048); test: Binding affinity to PRDX3 in human DOHH-2 cells measured after 6 hrs by pull-down assay; assay type: cell-based; settings: DDE = dose-dependent effect
T6 sequence (whole entry): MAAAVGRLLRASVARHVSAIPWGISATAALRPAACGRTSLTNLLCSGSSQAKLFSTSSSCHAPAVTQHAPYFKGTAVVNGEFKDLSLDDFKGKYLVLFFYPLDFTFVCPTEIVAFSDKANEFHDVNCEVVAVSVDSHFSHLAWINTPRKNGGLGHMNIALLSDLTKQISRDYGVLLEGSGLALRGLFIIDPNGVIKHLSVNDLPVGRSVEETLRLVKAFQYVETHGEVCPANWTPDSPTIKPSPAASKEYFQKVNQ

Chain of Glutathione S-transferase P (Homo sapiens) (P09211 2-210 limits assumed): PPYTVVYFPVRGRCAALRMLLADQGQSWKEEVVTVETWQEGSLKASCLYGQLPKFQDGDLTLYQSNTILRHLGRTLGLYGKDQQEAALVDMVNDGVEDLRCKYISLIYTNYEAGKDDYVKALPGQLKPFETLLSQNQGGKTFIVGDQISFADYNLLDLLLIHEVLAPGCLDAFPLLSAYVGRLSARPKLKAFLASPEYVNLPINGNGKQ

- Activity [1]: Dde
- Activity [3]: Dde
- Activity [4]: Active
- Activity [5]: Dde
- Activity [6]: Dde
- Activity [7]: Active
- t1/2 [8]: 3.91 min
- Activity [10]: Dde
- Activity [11]: Active
- Activity [12]: Dde
- Activity [13]: Dde
- Activity [15]: Active
- Activity [17]: Dde
- Activity [18]: Dde
SMILES: C#Cc1cccc(C#CS(N)(=O)=O)c1
- Activity [2]: Active
- Activity [9]: Active
- Activity [14]: Active
- Activity [16]: Active
